Reference: patent US5674867A, “Indolocarbazole derivatives and therapeutic method for stimulating megakaicyocyte production” (Kyowa Hakko Kogyo Co., Ltd., priority 1992, dated 1997)

Test system: bone marrow cells (megakaryocyte colony formation)
Assay: Megakaryocyte colony formation-stimulating activity (ACHE-stained colonies, bone marrow cells with IL-3)
Format: cell-based, BALB/c mouse
Conditions: with IL-3 100 U/ml, 7 days
Method: An eight-weeks-old BALB/c mouse was killed. Its femurs and cervical vertebrae were taken out, and both end sections thereof were cut off. Bone marrow cells were collected from the pieces cut off from the femurs and cervical vertebrae using a syringe containing IMDM (430-2200EA prepared by Gibco Co.), and then blown into a test tube. The test tube was allowed to stand for 5 minutes, and the supernatant was collected with a pipet. To a reaction mixture comprising the bone marrow cells (50,000 cells), bovine serum albumin (2%: A4508 made by Sigma Co.), transferrin (600 μg/ml 652202 made by Boehringer Mannheim Co.), IL-3 (100 U/ml), cholesterol (16 μg/ml: 036-0641 made by Wako Co.) and agar (0.6%: 0142-02 made by Difco Laboratories) were separately added the test compounds at various concentrations, and 1 ml each of the mixtures was put into a 35-mm dish (Lux Co.), followed by incubation under the conditions of 37° C., 5% CO2 and a humidity of 95% or more for 7 days. Separately, IL-3 alone was added to the bone marrow cells to prepare a control, whereas a positive control was prepared by adding 200 U/ml IL-6 to the above-mentioned reaction mixture. After the incubation was completed, the agar was dried over a filter paper (1001-055 made by Whatman Co.) and then fixed with 2.5% glutaraldehyde, followed by acetylcholinesterase staining (ACHE staining).
The ACHE staining was carried out by the method described below.
ACHE staining: To each sample was added a solution comprising 0.67 mg/ml acetylthiocholine iodide, 2.94 mg/ml sodium citrate, 7.5 mg/ml copper (II) sulfate and 1.65 mg/ml potassium ferricyanide, and the mixture was allowed to stand at room temperature in the dark for 4-6 hours.
A group of 4 or more megakaryocytes which were stained reddish brown was regarded as a colony, and the number of colonies per dish was calculated using a microscope. The results are shown in Table 2 as relative values to the control.

Row | Compound | Relative value (megakaryocyte colonies, control = 100) (0.1 nM) | Relative value (megakaryocyte colonies, control = 100) (0.01 nM) | Relative value (megakaryocyte colonies, control = 100) (1 nM, 10080 min, 0.001 µM) | Relative value (megakaryocyte colonies, control = 100) (1 nM) | Relative value (megakaryocyte colonies, control = 100) (100 nM) | Relative value (megakaryocyte colonies, control = 100) (10 nM)
1 | CNC1CC2OC(C)(C1OC)n1c3ccccc3c3c4c(c5c6ccccc6n2c5c31)C(=O)N(C)C4O (single isomer, unassigned) [Compound I-23a] | 114 |  |  |  |  | 
2 | CNC1CC2OC(C)(C1OC)n1c3ccccc3c3c4c(c5c6ccccc6n2c5c31)C(=O)N(C)C4O (single isomer, unassigned) [Compound I-23b] | 114 |  |  |  |  | 
3 | CNC1CC2OC(C)(C1OC)n1c3ccccc3c3c4c(c5c6ccccc6n2c5c31)C(=O)N(C)C4 (centres unmarked) [Compound I-2] |  | 125 | 168 |  |  | 
4 | CNC1CC2OC(C)(C1OC)n1c3ccccc3c3c4c(c5c6ccccc6n2c5c31)C(=O)N(N)C4=O (centres unmarked) [Compound I-3] |  | 98.8 |  | 127 |  | 
5 | COC(=O)C1(O)CC2OC1(C)n1c3ccccc3c3c4c(c5c6ccccc6n2c5c31)C(=O)NC4O (centres unmarked) [Compound I-4] |  | 94.3 |  | 115 |  | 
6 | CCCCCCOC(=O)C1(O)CC2OC1(C)n1c3ccccc3c3c4c(c5c6ccccc6n2c5c31)C(=O)NC4 (centres unmarked) [Compound I-5] |  | 112 |  | 104 | 103 | 
7 | CCCOc1ccc2c(c1)c1c3c(c4c5ccccc5n5c4c1n2C1CC(O)(C(=O)OC)C5(C)O1)CNC3=O (centres unmarked) [Compound I-6] |  | 112 |  | 132 | 117 | 
8 | COC(=O)C1(OC)CC2OC1(C)n1c3ccccc3c3c4c(c5c6ccccc6n2c5c31)C(=O)N(C)C4 (centres unmarked) [Compound I-7] |  | 93 |  | 101 | 108 | 
9 | COC(=O)C1(OC(C)=O)CC2OC1(C)n1c3ccccc3c3c4c(c5c6ccccc6n2c5c31)C(=O)N(C(C)=O)C4 (centres unmarked) [Compound I-8] |  | 95.6 |  | 118 | 89.6 | 
10 | CNC1CC2OC(C)(C1OC)n1c3ccccc3c3c4c(c5c6ccccc6n2c5c31)C(=O)N(C)C4=O (centres unmarked) [Compound I-9] | 135 |  |  | 117 |  | 92.2
11 | COC(=O)C1(O)CC2OC1(C)n1c3ccccc3c3c4c(c5c6cc(S(=O)(=O)N7CCN(C)CC7)ccc6n2c5c31)C(=O)NC4 (centres unmarked) [Compound I-11] | 88.4 |  |  | 95 |  | 116
12 | CCCOc1ccc2c(c1)c1c3c(c4c5cc(OCCC)ccc5n5c4c1n2C1CC(O)(C(=O)OC)C5(C)O1)CNC3=O (centres unmarked) [Compound I-12] | 133 |  |  | 113 |  | 122
13 | COC(=O)C1(O)CC2OC1(C)n1c3ccccc3c3c4c(c5c6ccccc6n2c5c31)C(=O)N(Cc1ccccc1)C4=O (centres unmarked) [Compound I-13] | 100 |  |  | 113 |  | 125
14 | CCSC1NC(=O)c2c1c1c3ccccc3n3c1c1c2c2ccccc2n1C1CC(O)(C(=O)OC)C3(C)O1 (centres unmarked) [Compound I-14] | 118 |  |  | 115 |  | 116
15 | CCCCOC(=O)C1(O)CC2OC1(C)n1c3ccccc3c3c4c(c5c6ccccc6n2c5c31)C(=O)NC4 (centres unmarked) [Compound I-15] | 120 |  |  | 121 |  | 132
16 | O=C1NCc2c1c1c3ccccc3[nH]c1c1[nH]c3ccccc3c21 [Compound I-16] | 118 |  |  | 88.3 |  | 100
17 | COC1C(N(C)C(=O)OCc2ccccc2)CC2OC1(C)n1c3ccccc3c3c4c(c5c6ccccc6n2c5c31)C(=O)N(C)C4 (centres unmarked) [Compound I-18] | 118 |  |  | 88 |  | 84

Row | Compound | Relative value (megakaryocyte colonies, control = 100) (0.1 nM) | Relative value (megakaryocyte colonies, control = 100) (0.01 nM) | Relative value (megakaryocyte colonies, control = 100) (1 nM, 10080 min, 0.001 µM) | Relative value (megakaryocyte colonies, control = 100) (1 nM) | Relative value (megakaryocyte colonies, control = 100) (100 nM) | Relative value (megakaryocyte colonies, control = 100) (10 nM)
18 | CCCN1Cc2c(c3c4ccccc4n4c3c3c2c2ccccc2n3C2(C)OC4CC(NC)C2OC)C1=O (centres unmarked) [Compound I-19] | 118 |  |  | 94 |  | 156
19 | CCCCCCN1Cc2c(c3c4ccccc4n4c3c3c2c2ccccc2n3C2(C)OC4CC(NC)C2OC)C1=O (centres unmarked) [Compound I-20] | 107 |  |  | 131 |  | 144
20 | CNC1CC2OC(C)(C1OC)n1c3ccccc3c3c4c(c5c6ccccc6n2c5c31)C(=O)N(Cc1ccccc1)C4 (centres unmarked) [Compound I-21] | 95 |  |  | 105 |  | 97
21 | CNC1CC2OC(C)(C1OC)n1c3ccccc3c3c4c(c5c6ccccc6n2c5c31)C(=O)N(C)C4 (centres unmarked) [Compound I-22] | 116 |  | 120 |  |  | 100
22 | CCCN(C)C1CC2OC(C)(C1OC)n1c3ccccc3c3c4c(c5c6ccccc6n2c5c31)C(=O)N(C)C4 (centres unmarked) [Compound I-24] | 88 |  |  | 87 |  | 109
23 | CCCCCCN(C)C1CC2OC(C)(C1OC)n1c3ccccc3c3c4c(c5c6ccccc6n2c5c31)C(=O)NC4 (centres unmarked) [Compound I-27] | 76 |  |  | 109 |  | 97
24 | COC1C(N(C)C(C)=O)CC2OC1(C)n1c3ccccc3c3c4c(c5c6ccccc6n2c5c31)C(=O)NC4 (centres unmarked) [Compound I-28] | 89 |  |  | 101 |  | 95
25 | CNC1CC2OC(C)(C1OC)n1c3ccccc3c3c4c(c5c6cc(Br)ccc6n2c5c31)C(=O)NC4 (centres unmarked) [Compound I-29] | 90 |  |  | 113 |  | 112
26 | COC(=O)C1(OC)CC2OC1(C)n1c3ccccc3c3c4c(c5c6ccccc6n2c5c31)C(=O)NC4 (centres unmarked) [Compound I-36] | 130 |  |  | 172 |  | 173
27 | COC(=O)C1(OC(C)=O)CC2OC1(C)n1c3ccccc3c3c4c(c5c6cc(C(C)=O)ccc6n2c5c31)C(=O)N(C(C)=O)C4 (centres unmarked) [Compound I-37] | 82 |  |  | 124 |  | 114
28 | CCCOc1ccc2c(c1)c1c3c(c4c5ccccc5n5c4c1n2C1CC(OC)(C(=O)OC)C5(C)O1)CN(C)C3=O (centres unmarked) [Compound I-38] | 112 |  |  | 111 |  | 136
29 | COCOC1(C(=O)OC)CC2OC1(C)n1c3ccccc3c3c4c(c5c6ccccc6n2c5c31)C(=O)NC4 (centres unmarked) [Compound I-39] | 123 |  |  | 109 |  | 92
30 | CCCOC(=O)C1(O)CC2OC1(C)n1c3ccccc3c3c4c(c5c6ccccc6n2c5c31)C(=O)NC4 (centres unmarked) [Compound I-42] | 91 |  |  | 107 |  | 122
31 | CCCCOC(=O)C1(O)CC2OC1(C)n1c3ccccc3c3c4c(c5c6ccccc6n2c5c31)C(=O)NC4=O (centres unmarked) [Compound I-43] | 81 |  |  | 118 |  | 87
32 | CCCN1C(=O)c2c(c3c4ccccc4n4c3c3c2c2ccccc2n3C2CC(O)(C(=O)OC)C4(C)O2)C1=O (centres unmarked) [Compound I-44] | 126 |  |  | 70 |  | 118
33 | CC(C)OC(=O)C1(O)CC2OC1(C)n1c3ccccc3c3c4c(c5c6ccccc6n2c5c31)C(=O)NC4 (centres unmarked) [Compound I-45] | 103 |  |  | 143 |  | 100
